Laboratory results as given in article PMC12250965, “Design and Synthesis of Sulfonium and Selenonium Derivatives Bearing 3′,5′-O-Benzylidene Acetal Side Chain Structure as Potent α-Glucosidase Inhibitors” (Molecules, 2025).
Like-named read-outs stand apart in the source and are kept apart here.

Tests used:
rat intestinal maltase = test: In vitro α-glucosidase inhibition assay, rat intestinal maltase; type: biochemical; conditions: rat small intestinal brush border membrane vesicles; maltose substrate; mean ± SD (n = 3); read-out: IC50 against maltase
Protocol: (§1) The testing method previously described was modified and used. Thus, rat small intestinal brush border membrane vesicles were first prepared, and its suspension in 0.1 M maleate buffer (pH = 6.0) was used as small intestinal α-glucosidases of maltase and sucrase. A test compound was dissolved in dimethylsulfoxide (DMSO), and the resulting solution was diluted with 0.1 M maleate buffer to prepare the test compound solution (concentration of DMSO: 10%). The substrate solution in maleate buffer ([…], 50 μL), a test compound solution (25 μL), and the enzyme solution (25 μL) were mixed and incubated at 37 °C for 30 min. After incubation, the solution was immediately heated by boiling water for 2 min to stop the reaction, and the solution was mixed with water (150 μL). Glucose concentration was determined by the glucose-oxidase method. […] The IC50 value was determined graphically by a plot of percent inhibition versus log of the test compound.

rat intestinal sucrase = target: T1, rat intestinal sucrase (Rattus norvegicus, UniProt P23739); test: In vitro α-glucosidase inhibition assay, rat intestinal sucrase; type: biochemical
T1 construct: rat small intestinal brush border membrane vesicles were first prepared; from tissue; host or cells: rat small intestine, brush border membrane vesicles
Protocol: as §1

[1] = rat small intestinal brush border membrane vesicles, sucrose substrate, mean ± SD (n = 3), read-out: IC50 against sucrase

T1 sequence (P23739 whole entry): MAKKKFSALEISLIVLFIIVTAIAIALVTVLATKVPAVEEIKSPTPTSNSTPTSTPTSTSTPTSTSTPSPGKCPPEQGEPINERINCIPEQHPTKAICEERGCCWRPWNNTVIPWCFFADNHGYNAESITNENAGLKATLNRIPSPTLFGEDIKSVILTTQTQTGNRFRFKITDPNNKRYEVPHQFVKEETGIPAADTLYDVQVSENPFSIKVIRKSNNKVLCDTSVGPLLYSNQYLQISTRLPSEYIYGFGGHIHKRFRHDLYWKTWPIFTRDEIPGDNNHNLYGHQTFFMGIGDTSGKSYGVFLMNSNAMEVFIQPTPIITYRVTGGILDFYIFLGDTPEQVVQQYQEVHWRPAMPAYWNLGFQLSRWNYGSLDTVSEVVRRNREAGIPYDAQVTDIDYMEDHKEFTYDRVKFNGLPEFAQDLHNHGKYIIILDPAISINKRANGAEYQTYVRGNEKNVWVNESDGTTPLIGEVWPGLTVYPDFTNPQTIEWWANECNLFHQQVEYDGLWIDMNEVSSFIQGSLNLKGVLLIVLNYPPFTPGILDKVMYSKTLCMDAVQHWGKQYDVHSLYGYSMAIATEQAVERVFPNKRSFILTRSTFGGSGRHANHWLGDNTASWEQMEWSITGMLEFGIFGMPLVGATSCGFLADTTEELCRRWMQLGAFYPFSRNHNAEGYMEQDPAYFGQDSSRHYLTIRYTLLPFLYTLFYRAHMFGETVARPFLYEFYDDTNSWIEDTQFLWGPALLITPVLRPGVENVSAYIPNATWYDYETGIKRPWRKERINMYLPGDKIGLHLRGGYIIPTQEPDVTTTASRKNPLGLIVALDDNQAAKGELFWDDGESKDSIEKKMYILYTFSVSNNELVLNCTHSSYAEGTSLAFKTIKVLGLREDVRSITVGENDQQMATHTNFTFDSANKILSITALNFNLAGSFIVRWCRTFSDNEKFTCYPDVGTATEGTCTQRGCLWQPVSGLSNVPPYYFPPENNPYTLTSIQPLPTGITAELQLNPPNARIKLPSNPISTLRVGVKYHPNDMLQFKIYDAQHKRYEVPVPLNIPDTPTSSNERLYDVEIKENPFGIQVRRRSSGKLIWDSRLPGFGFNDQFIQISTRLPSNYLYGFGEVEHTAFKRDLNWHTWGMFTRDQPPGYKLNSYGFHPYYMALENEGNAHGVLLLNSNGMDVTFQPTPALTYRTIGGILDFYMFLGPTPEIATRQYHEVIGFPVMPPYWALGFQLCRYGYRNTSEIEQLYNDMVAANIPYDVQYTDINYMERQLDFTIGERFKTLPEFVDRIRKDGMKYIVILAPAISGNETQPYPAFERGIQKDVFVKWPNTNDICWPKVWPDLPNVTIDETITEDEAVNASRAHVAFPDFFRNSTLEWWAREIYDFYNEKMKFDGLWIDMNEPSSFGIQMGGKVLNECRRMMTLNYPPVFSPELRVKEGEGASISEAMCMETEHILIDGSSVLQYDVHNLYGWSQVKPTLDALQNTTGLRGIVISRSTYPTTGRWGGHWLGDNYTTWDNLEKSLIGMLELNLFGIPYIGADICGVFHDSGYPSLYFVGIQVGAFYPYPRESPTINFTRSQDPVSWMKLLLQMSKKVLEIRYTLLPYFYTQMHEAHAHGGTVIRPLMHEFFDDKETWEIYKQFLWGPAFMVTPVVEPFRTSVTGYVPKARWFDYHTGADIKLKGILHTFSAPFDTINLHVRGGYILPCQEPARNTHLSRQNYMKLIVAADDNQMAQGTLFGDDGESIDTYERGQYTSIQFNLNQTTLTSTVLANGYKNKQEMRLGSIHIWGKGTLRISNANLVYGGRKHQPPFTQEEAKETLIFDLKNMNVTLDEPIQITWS

IC50 (rat intestinal sucrase; [1]) [nM] | SMILES | IC50 (rat intestinal maltase) [nM] | IC50 (rat intestinal sucrase) [nM]
 | OC[C@@H]1[C@@H](O)[C@H](O)C[Se@@+]1C[C@@H](O)[C@H]1OC(c2cccc3ccccc23)OC[C@H]1O (stereo partly drawn) [20q, (1S,2R,3S,4S)-3,4-dihydroxy-1-((2S)-2-hydroxy-2-((4S,5R)-5-hydroxy-2-(naphthalen-1-yl)-1,3-dioxan-4-yl)ethyl)-2-(hydroxymethyl)tetrahydro-1H-selenophen-1-ium chloride] | 920 ± 230 | 680 ± 140
 | N#Cc1ccccc1C1OC[C@@H](O)[C@@H]([C@H](O)C[Se@@+]2C[C@@H](O)[C@H](O)[C@H]2CO)O1 (stereo partly drawn) [20p, (1S,2R,3S,4S)-1-((2S)-2-((4S,5R)-2-(2-Cyanophenyl)-5-hydroxy-1,3-dioxan-4-yl)-2-hydroxyethyl)-3,4-dihydroxy-2-(hydroxymethyl)tetrahydro-1H-selenophen-1-ium chloride] | 820 ± 210 | 370 ± 50
1600 ± 430 | OCC1C(O)C(O)C[S+]1CC(O)C1OC(c2cccc(Cl)c2Cl)OCC1O [19a, 1,4-Dideoxy-1,4-[(R)-(5-deoxy-1,3-O-(2,3-dichlorobenzylidene)-D-arabinitol-5-yl)episulfoniumylidene]-D-arabinitol chloride] | 500 ± 80 | 
 | OC[C@@H]1[C@@H](O)[C@H](O)C[Se@+]1C[C@@H](O)[C@H]1OC(c2ccccc2Br)OC[C@H]1O (stereo partly drawn) [20k, (1S,2R,3S,4S)-1-((2S)-2-((4S,5R)-2-(2-Bromophenyl)-5-hydroxy-1,3-dioxan-4-yl)-2-hydroxyethyl)-3,4-dihydroxy-2-(hydroxymethyl)tetrahydro-1H-selenophen-1-ium chloride] | 530 ± 220 | 120 ± 50
3300 ± 280 | OCC1C(O)C(O)C[S+]1CC(O)C1OC(c2ccccc2I)OCC1O [19o, 1,4-Dideoxy-1,4-[(R)-(5-deoxy-1,3-O-(o-iodobenzylidene)-D-arabinitol-5-yl)episulfoniumylidene]-D-arabinitol chloride] | 3100 ± 660 | 
5800 ± 410 | OCC1C(O)C(O)C[S+]1CC(O)C1OC(c2cccc3ccccc23)OCC1O [19q, 1,4-Dideoxy-1,4-[(R)-(5-deoxy-1,3-O-(1-naphthalene)-D-arabinitol-5-yl)episulfoniumylidene]-D-arabinitol chloride] | 4600 ± 370 | 
 | OC[C@@H]1[C@@H](O)[C@H](O)C[Se@+]1C[C@@H](O)[C@H]1OC(c2cccc(F)c2Cl)OC[C@H]1O (stereo partly drawn) [20d, (1S,2R,3S,4S)-1-((2S)-2-((4S,5R)-2-(2-Chloro-3-fluorophenyl)-5-hydroxy-1,3-dioxan-4-yl)-2-hydroxyethyl)-3,4-dihydroxy-2-(hydroxymethyl)tetrahydro-1H-selenophen-1-ium chloride] | 620 ± 70 | 870 ± 230
4600 ± 90 | OCC1C(O)C(O)C[S+]1CC(O)C1OC(c2ccc(Cl)c(Cl)c2)OCC1O [19f, 1,4-Dideoxy-1,4-[(R)-(5-deoxy-1,3-O-(3,4-dichlorobenzylidene)-D-arabinitol-5-yl)episulfoniumylidene]-D-arabinitol chloride] | 5000 ± 390 | 
1400 ± 330 | OCC1C(O)C(O)C[S+]1CC(O)C1OC(c2cc(F)cc(Cl)c2)OCC1O [19h, 1,4-Dideoxy-1,4-[(R)-(5-deoxy-1,3-O-(3-chloro-5-fluorobenzylidene)-D-arabinitol5-yl)episulfoniumylidene]-D-arabinitol chloride] | 850 ± 280 | 
 | O=[N+]([O-])c1ccc(F)cc1C1OC[C@@H](O)[C@@H]([C@H](O)C[Se@@+]2C[C@@H](O)[C@H](O)[C@H]2CO)O1 (stereo partly drawn) [20j, (1S,2R,3S,4S)-1-((2S)-2-((4S,5R)-2-(5-Fluoro-2-nitrophenyl)-5-hydroxy-1,3-dioxan-4-yl)-2-hydroxyethyl)-3,4-dihydroxy-2-(hydroxymethyl)tetrahydro-1H-selenophen-1-ium chloride] | 330 ± 80 | 90 ± 30
3300 ± 220 | OCC1C(O)C(O)C[S+]1CC(O)C1OC(c2ccccc2-c2ccccc2)OCC1O [19r, 1,4-Dideoxy-1,4-[(R)-(5-deoxy-1,3-O-(2-phenylbenzylidene)-D-arabinitol-5-yl)episulfoniumylidene]-D-arabinitol chloride] | 10500 ± 1100 | 
10000 ± 1800 | OCC1C(O)C(O)C[S+]1CC(O)C1OC(c2cc(C(F)(F)F)cc(C(F)(F)F)c2)OCC1O [19i, 1,4-Dideoxy-1,4-[(R)-(5-deoxy-1,3-O-(3,5-bis(trifluoromethyl)benzylidene)-D-arabinitol-5-yl)episulfoniumylidene]-D-arabinitol chloride] | 8900 ± 530 | 
700 ± 130 | OCC1C(O)C(O)C[S+]1CC(O)C1OC(c2cccc(F)c2Cl)OCC1O [19d, 1,4-Dideoxy-1,4-[(R)-(5-deoxy-1,3-O-(2-chloro-3-fluorobenzylidene)-D-arabinitol-5-yl)episulfoniumylidene]-D-arabinitol chloride] | 1000 ± 50 | 
 | OC[C@@H]1[C@@H](O)[C@H](O)C[Se@+]1C[C@@H](O)[C@H]1OC(c2cc(Cl)cc(Cl)c2)OC[C@H]1O (stereo partly drawn) [20g, (1S,2R,3S,4S)-1-((2S)-2-((4S,5R)-2-(3,5-Dichlorophenyl)-5-hydroxy-1,3–dioxan-4-yl)-2-hydroxyethyl)-3,4-dihydroxy-2-(hydroxymethyl)tetrahydro-1H-selenophen-1-ium Chloride] | 710 ± 210 | 220 ± 50
1200 ± 230 | OCC1C(O)C(O)C[S+]1CC(O)C1OC(c2ccc(Cl)cc2Cl)OCC1O [19b, 1,4-Dideoxy-1,4-[(R)-(5-deoxy-1,3-O-(2,4-dichlorobenzylidene)-D-arabinitol-5-yl)episulfoniumylidene]-D-arabinitol chloride] | 2000 ± 80 | 
 | OC[C@@H]1[C@@H](O)[C@H](O)C[Se@+]1C[C@@H](O)[C@H]1OC(c2cc(F)ccc2Cl)OC[C@H]1O (stereo partly drawn) [20e, (1S,2R,3S,4S)-1-((2S)-2-((4S,5R)-2-(2-Chloro-5-fluorophenyl)-5-hydroxy-1,3-dioxan-4-yl)-2-hydroxyethyl)-3,4-dihydroxy-2-(hydroxymethyl)tetrahydro-1H-selenophen-1-ium chloride] | 450 ± 80 | 410 ± 110
1500 ± 210 | O=[N+]([O-])c1ccc(F)cc1C1OCC(O)C(C(O)C[S+]2CC(O)C(O)C2CO)O1 [19j, 1,4-Dideoxy-1,4-[(R)-(5-deoxy-1,3-O-(5-fluoro-2-nitrobenzylidene)-D-arabinitol-5-yl)episulfoniumylidene]-D-arabinitol chloride] | 750 ± 80 | 
 | OC[C@@H]1[C@@H](O)[C@H](O)C[Se@@+]1C[C@@H](O)[C@H]1OC(c2ccccc2I)OC[C@H]1O (stereo partly drawn) [20o, (1S,2R,3S,4S)-3,4-Dihydroxy-1-((2S)-2-hydroxy-2-((4S,5R)-5-hydroxy-2-(2-iodophenyl)-1,3-dioxan-4-yl)ethyl)-2-(hydroxymethyl)tetrahydro-1H-selenophen-1-ium chloride] | 360 ± 70 | 300 ± 110
 | OC[C@@H]1[C@@H](O)[C@H](O)C[Se@+]1C[C@@H](O)[C@H]1OC(c2ccccc2F)OC[C@H]1O (stereo partly drawn) [20n, (1S,2R,3S,4S)-1-((2S)-2-((4S,5R)-2-(2-Fluorophenyl)-5-hydroxy-1,3-dioxan-4-yl)-2-hydroxyethyl)-3,4-dihydroxy-2-(hydroxymethyl)tetrahydro-1H-selenophen-1-ium chloride] | 3750 ± 580 | 200 ± 60
 | OC[C@@H]1[C@@H](O)[C@H](O)C[Se@+]1C[C@@H](O)[C@H]1OC(c2cc(C(F)(F)F)cc(C(F)(F)F)c2)OC[C@H]1O (stereo partly drawn) [20i, (1S,2R,3S,4S)-1-((2S)-2-((4S,5R)-2-(3,5-Bis(trifluoromethyl)phenyl)-5-hydroxy-1,3-dioxan-4-yl)-2-hydroxyethyl)-3,4-dihydroxy-2-(hydroxymethyl)tetrahydro-1H-selenophen-1-ium chloride] | 1010 ± 320 | 410 ± 110
1100 ± 20 | OCC1C(O)C(O)C[S+]1CC(O)C1OC(c2ccccc2Br)OCC1O [19k, 1,4-Dideoxy-1,4-[(R)-(5-deoxy-1,3-O-(o-bromobenzylidene)-D-arabinitol-5-yl)episulfoniumylidene]-D-arabinitol chloride] | 1900 ± 80 | 
 | OC[C@@H]1[C@@H](O)[C@H](O)C[Se@+]1C[C@@H](O)[C@H]1OC(c2ccc(Br)cc2)OC[C@H]1O (stereo partly drawn) [20m, (1S,2R,3S,4S)-1-((2S)-2-((4S,5R)-2-(4-Bromophenyl)-5-hydroxy-1,3-dioxan-4-yl)-2-hydroxyethyl)-3,4-dihydroxy-2-(hydroxymethyl)tetrahydro-1H-selenophen-1-ium chloride] | 70 ± 30 | 200 ± 50
900 ± 50 | N#Cc1ccccc1C1OCC(O)C(C(O)C[S+]2CC(O)C(O)C2CO)O1 [19p, 1,4-Dideoxy-1,4-[(R)-(5-deoxy-1,3-O-(o-cyanobenzyliden)-D-arabinitol-5-yl)episulfoniumylidene]-D-arabinitol chloride] | 880 ± 40 | 
 | OC[C@@H]1[C@@H](O)[C@H](O)C[Se@+]1C[C@@H](O)[C@H]1OC(c2ccccc2-c2ccccc2)OC[C@H]1O (stereo partly drawn) [20r, (1S,2R,3S,4S)-1-((2S)-2-((4S,5R)-2-([1,1′-biphenyl]-2-yl)-5-hydroxy-1,3-dioxan-4-yl)-2-hydroxyethyl)-3,4-dihydroxy-2-(hydroxymethyl)tetrahydro-1H-selenophen-1-ium chloride] | 2000 ± 520 | 720 ± 170
6600 ± 450 | OCC1C(O)C(O)C[S+]1CC(O)C1OC(c2cc(F)ccc2Cl)OCC1O [19e, 1,4-Dideoxy-1,4-[(R)-(5-deoxy-1,3-O-(2-chloro-5-fluorobenzylidene)-D-arabinitol-5-yl)episulfoniumylidene]-D-arabinitol chloride] |  | 
